Assay results taken from patent US8741602B2, “Method for producing glucuronic acid conjugate using Saccharomyces cerevisiae” (Toyama Prefecture, priority 2010, dated 2014).

How the values were obtained:
[1] = target: T1, hUGT1A9 (Homo sapiens, UniProt O60656); assay: Glucuronide production in resting S. cerevisiae AH22 cells co-expressing UDPGDH and UGT1A9; assay type: cell-based
T1 construct: expressed in transfected cells; host or cells: Saccharomyces cerevisiae AH22
T1 sequence (O60656 26-530): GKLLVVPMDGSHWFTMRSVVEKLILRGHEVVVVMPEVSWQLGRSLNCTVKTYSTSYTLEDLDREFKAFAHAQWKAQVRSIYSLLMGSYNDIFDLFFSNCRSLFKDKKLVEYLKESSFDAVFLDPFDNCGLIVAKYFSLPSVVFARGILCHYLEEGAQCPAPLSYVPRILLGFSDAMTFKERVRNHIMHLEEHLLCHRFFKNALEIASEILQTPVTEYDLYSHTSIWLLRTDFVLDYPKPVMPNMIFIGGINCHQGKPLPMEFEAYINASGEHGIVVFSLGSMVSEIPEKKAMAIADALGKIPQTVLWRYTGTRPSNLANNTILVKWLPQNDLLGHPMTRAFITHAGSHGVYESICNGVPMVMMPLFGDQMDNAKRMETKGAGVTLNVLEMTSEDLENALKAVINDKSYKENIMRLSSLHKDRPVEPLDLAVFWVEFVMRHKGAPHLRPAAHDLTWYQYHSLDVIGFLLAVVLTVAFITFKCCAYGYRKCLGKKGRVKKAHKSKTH
Experimental: (§1) Each phase was analyzed by UPLC system.

[2] = target: T2, hUGT1A1 (Homo sapiens, UniProt P22309); conditions: 24 h, 0.2 mM, pH 7.4
T2 sequence (P22309 28-533): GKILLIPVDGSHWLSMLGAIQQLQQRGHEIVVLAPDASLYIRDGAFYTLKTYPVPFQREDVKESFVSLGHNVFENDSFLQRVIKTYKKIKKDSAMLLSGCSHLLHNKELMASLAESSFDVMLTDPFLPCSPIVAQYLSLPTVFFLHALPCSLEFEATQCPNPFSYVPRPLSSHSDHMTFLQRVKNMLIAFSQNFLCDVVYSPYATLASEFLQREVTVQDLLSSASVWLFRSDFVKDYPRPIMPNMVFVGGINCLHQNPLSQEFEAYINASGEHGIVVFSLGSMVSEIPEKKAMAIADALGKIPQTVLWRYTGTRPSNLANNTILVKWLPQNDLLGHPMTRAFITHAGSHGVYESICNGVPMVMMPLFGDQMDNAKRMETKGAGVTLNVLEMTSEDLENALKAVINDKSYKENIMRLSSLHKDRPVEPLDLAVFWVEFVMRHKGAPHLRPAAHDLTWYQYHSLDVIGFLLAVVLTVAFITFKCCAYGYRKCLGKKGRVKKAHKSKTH
Experimental: (§2) To confirm the production of 7-hydroxycoumarine glucuronide in the resting yeast cells containing UDPGDH and UGT, transformants were cultivated in selection medium at 30° C., 48 hrs, and the resultant yeast cells were suspended with appropriate buffer solution containing 0.1-1 mM 7-hydroxycoumarine and 1-8% (w/v) glucose. After incubation at 30° C., 24 hrs, 2-fold volume of chloroform:methanol (3:1, v/v) was added to reaction medium containing yeast cells. Centrifugation of extracts was separated to upper water and lower organic phase. Lower organic phase were evaporated and redissolved in 200 μl acetonitrile. Each phase was analyzed by UPLC system. Condition of analysis are described below; column: Cosmosil 2.5C18-MS-II (2.0 mm×100 mm, nacalai tesque), flow rate 0.5 ml/min, detection 320 nm, temperature 45° C. Condition of gradient elution: water-acetonitrile with 0.5% (v/v) trifluoroacetic acid, 10% (v/v) acetonitrile (4 min), 10-70% acetonitrile (6 min), 70-10% acetonitrile (2 min), 10% acetonitrile (4 min).
(§3) To confirm the production of quercetin glucuronide in the resting yeast cells containing UDPGDH and UGT (pAUR/At.UDPGDH+pGYR/hUGT1A1), transformants were cultivated in selection medium at 30° C., 48 hrs, and the resultant yeast cells were suspended with 0.1 M potassium phosphate buffer (pH 7.4) containing 0.2 mM quercetin and 8% (w/v) glucose. After incubation at 30° C., 24 hrs, 2-fold volume of chloroform:methanol (3:1, v/v) was added to reaction medium containing yeast cells. Centrifugation of extracts was separated to upper water and lower organic phase. Lower organic phase were evaporated and redissolved in 200 μl acetonitrile. Quercetin glucuronides in yeast cells was isolated and detected by WAKOPAK™ Navi C30-5 (3 mm×150 mm, Wako Chemical)-column-HPLC system with followed condition; flow rate; 0.4 ml/min, detection; 370 nm, temperature 37° C. Condition of gradient elution: water-acetonitrile with 0.5% (v/v) phosphoric acid, 18% (v/v) acetonitrile (10 min), 18-55% acetonitrile (10 min), 55% acetonitrile (5 min).
(§4) To compare the production ability of glucuronide in budding (Saccharomyces cerevisiae) and fission yeast (Schizosaccharomyces pombe) containing UDPGDH and UGT, several transformants (No. 4 in Table 2 and transformant with N-terminal modified UGT1A1) were selected for the assay. These transformants were cultivated in selection medium at 30° C., 48 hrs, and the resultant yeast cells were suspended with appropriate buffer solution containing 0.5 mM 4-methylumberrferone and 8% (w/v) glucose. After incubation at 30° C., 24 hrs, 2-fold volume of chloroform:methanol (3:1, v/v) was added to reaction medium containing yeast cells. Centrifugation of extracts was separated to upper water and lower organic phase. Lower organic phase were evaporated and redissolved in 200 μl acetonitrile. Each phase was analyzed by UPLC system.
(§5) Condition of analysis are described below; column: COSMOSIL™ 2.5C18-MS-II (2.0 mm×100 mm, Nacalai Tesque), flow rate 0.5 ml/min, detection 320 nm, temperature 45° C. Condition of gradient elution: water-acetonitrile with 0.1% (v/v) trifluoroacetic acid, 10% acetonitrile (4 min), 10-70% acetonitrile (6 min), 70-10% acetonitrile (2 min), 10% acetonitrile (3 min).

[3] = target: T3, hUGT1A7 (Homo sapiens, UniProt Q9HAW7); assay: Glucuronide production in resting S. cerevisiae AH22 cells co-expressing UDPGDH and UGT1A7; assay type: cell-based; conditions: UGT1A7 with At.UDPGDH; 7-hydroxycoumarine substrate, 30° C., 24 hrs
T3 construct: expressed in transfected cells; host or cells: Saccharomyces cerevisiae AH22
T3 sequence (Q9HAW7 26-530): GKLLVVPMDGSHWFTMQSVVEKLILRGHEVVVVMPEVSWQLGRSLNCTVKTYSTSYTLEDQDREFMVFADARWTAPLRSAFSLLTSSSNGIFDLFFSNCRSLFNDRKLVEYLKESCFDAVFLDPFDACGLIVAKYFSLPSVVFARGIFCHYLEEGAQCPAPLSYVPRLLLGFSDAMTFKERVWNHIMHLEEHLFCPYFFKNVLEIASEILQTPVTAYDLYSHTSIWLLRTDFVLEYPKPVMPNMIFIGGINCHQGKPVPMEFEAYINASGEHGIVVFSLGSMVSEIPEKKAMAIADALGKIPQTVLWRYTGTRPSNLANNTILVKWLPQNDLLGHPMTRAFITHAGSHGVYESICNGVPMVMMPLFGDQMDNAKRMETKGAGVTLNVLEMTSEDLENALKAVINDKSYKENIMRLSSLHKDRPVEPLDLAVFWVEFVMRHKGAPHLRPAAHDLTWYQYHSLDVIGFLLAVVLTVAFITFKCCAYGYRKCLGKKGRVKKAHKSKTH
Experimental: as §1

[4] = target: T4, hUGT1A8 (Homo sapiens, UniProt Q9HAW9); assay: Glucuronide production in resting S. cerevisiae AH22 cells co-expressing UDPGDH and UGT1A8; assay type: cell-based
T4 construct: expressed in transfected cells; host or cells: Saccharomyces cerevisiae AH22
T4 sequence (Q9HAW9 26-530): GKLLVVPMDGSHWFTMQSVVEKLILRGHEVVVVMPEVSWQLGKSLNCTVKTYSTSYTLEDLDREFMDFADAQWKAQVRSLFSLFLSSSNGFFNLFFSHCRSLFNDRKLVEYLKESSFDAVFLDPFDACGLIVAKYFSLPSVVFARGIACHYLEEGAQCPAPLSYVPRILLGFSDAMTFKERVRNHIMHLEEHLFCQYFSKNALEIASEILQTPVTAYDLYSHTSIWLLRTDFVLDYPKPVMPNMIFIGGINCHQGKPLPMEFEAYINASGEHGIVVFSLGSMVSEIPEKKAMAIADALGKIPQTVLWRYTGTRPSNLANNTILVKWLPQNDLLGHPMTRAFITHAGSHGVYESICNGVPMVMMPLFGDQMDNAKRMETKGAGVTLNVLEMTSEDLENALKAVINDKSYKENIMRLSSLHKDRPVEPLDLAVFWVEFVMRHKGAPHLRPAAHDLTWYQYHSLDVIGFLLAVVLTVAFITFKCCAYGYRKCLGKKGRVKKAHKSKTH
Experimental: as §1

[5] = target: T5, UGT1A6 (Homo sapiens, UniProt P19224); assay: Glucuronide production in resting S. cerevisiae AH22 cells co-expressing UDPGDH and UGT1A6; assay type: cell-based; parameters: expressed in transfected cells; host or cells: Saccharomyces cerevisiae AH22
T5 sequence (P19224 27-532): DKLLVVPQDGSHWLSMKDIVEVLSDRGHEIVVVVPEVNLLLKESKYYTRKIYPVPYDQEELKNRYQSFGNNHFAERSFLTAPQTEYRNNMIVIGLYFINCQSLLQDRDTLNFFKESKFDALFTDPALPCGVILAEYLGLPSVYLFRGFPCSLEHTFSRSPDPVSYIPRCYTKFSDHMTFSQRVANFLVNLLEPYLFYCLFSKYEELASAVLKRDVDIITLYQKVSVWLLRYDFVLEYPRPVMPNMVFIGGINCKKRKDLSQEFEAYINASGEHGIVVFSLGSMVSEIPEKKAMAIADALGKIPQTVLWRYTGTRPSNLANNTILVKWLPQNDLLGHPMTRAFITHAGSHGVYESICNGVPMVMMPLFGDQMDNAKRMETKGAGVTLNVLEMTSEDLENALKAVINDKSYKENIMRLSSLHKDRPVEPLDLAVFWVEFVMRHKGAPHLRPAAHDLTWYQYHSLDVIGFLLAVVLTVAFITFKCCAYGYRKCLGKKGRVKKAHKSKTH
Experimental: as §1
Time course of conversion in the transformant with the highest activity of glucuronidation (AH22: pAUR/At.UDPGDH+pGYR/hUGT1A6) was examined (FIG. 6).
Glucose concentration dependence of conversion in the transformant with the highest activity of glucuronidation (AH22: pAUR/At.UDPGDH+pGYR/hUGT1A6) was examined (FIG. 7).

[6] = target: T2, hUGT1A1; assay: Glucuronide production in resting S. cerevisiae AH22 cells co-expressing UDPGDH and UGT1A1; conditions: UGT1A1 with At.UDPGDH; 7-hydroxycoumarine substrate, 30° C., 24 hrs
Experimental: as §2, §3, §4, §5

[7] = target: T6, rat UDP-glucose dehydrogenase (Rattus norvegicus, UniProt O70199); assay: Production of UDP-glucuronic acid in yeast cells transformed with rat UDP-glucose dehydrogenase gene; assay type: cell-based; conditions: estimation of sugar nucleotide, FIG. 4 line C
T6 construct: confirmed the gene product from GenBank Acc; ID NO: 9; expressed in transfected cells; host or cells: Saccharomyces cerevisiae AH22
T6 sequence (O70199 1-493): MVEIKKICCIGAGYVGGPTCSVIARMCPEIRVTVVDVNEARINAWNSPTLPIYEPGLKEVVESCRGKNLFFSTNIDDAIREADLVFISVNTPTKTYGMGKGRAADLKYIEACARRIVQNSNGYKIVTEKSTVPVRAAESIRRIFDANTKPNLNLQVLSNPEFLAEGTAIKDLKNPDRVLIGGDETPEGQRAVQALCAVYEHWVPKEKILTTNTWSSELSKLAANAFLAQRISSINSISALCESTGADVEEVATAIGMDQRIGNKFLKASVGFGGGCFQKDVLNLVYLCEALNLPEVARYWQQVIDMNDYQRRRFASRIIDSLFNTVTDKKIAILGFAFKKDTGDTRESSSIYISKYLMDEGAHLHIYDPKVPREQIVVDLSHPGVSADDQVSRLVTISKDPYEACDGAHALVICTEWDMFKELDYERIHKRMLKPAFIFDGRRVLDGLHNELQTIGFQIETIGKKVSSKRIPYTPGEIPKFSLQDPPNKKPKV
Text: Upper water phase of extracts were separated by centrifugation.

[8] = target: T7, UGT1A10 (Homo sapiens, UniProt Q9HAW8); assay: Acyl glucuronide production in resting S. cerevisiae cells co-expressing UDPGDH and UGT1A10; assay type: cell-based; conditions: 1 mM mefenamic acid
T7 construct: expressed in transfected cells; host or cells: Saccharomyces cerevisiae AH22
T7 sequence (Q9HAW8 26-530): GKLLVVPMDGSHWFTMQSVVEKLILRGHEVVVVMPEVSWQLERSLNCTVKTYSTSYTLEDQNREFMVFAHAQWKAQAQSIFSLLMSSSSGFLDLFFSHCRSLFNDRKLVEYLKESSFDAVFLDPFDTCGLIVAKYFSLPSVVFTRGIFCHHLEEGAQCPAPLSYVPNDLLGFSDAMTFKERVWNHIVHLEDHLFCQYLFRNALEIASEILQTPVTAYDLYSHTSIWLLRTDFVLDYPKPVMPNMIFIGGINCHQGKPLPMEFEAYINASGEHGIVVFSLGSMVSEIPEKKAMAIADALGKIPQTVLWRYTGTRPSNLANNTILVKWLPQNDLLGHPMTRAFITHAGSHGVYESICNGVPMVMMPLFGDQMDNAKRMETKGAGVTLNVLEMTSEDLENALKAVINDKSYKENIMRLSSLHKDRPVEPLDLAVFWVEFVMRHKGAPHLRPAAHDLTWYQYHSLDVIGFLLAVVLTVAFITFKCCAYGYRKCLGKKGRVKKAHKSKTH
Experimental: as §1

**Q.** With COc1c(C)c2c(c(O[C@@H]3O[C@H](C(=O)O)[C@@H](O)[C@H](O)[C@H]3O)c1C/C=C(\C)CCC(=O)O)C(=O)OC2 [mycophenolic acid glucuronide] as the compound, how does the “production of glucuronide (FIG. 10)” value ([1]; 0.2 mM mycophenolic acid, 8% glucose, 30° C., 24 hrs) read?
**A.** Its value is “confirmed”.

**Q.** For COc1c(C)c2c(c(O[C@@H]3O[C@H](C(=O)O)[C@@H](O)[C@H](O)[C@H]3O)c1C/C=C(\C)CCC(=O)O)C(=O)OC2 [mycophenolic-O-glucuronide], which “site of glucuronidation (FIG. 10)” value ([1]; 0.2 mM mycophenolic acid, UGT1A9) is on record?
**A.** The value was “preferential production”.

**Q.** For O=c1c(O)c(-c2ccc(O)c(O)c2)oc2cc(O)cc(O)c12 [Quercetin, quercetin], which “site of glucuronidation (FIG. 9)” value [2] is on record?
**A.** Its value is “preferential production of querecetin glucuronide at 3′ phenolic hydroxyl group in B ring”.

**Q.** For O=C(O)[C@H]1O[C@@H](Oc2ccc3ccc(=O)oc3c2)[C@H](O)[C@@H](O)[C@@H]1O [glucuronide of 7-hydroxycoumarine, 7-hydroxycoumarine glucuronide], which “production of glucuronide (FIG. 5)” value [3] is on record?
**A.** The value was “observed”.

**Q.** What about the “production of glucuronide (FIG. 5)” value ([4]; UGT1A8 with At.UDPGDH, 7-hydroxycoumarine substrate, 30° C., 24 hrs) of the same compound?
**A.** Its value is “observed”.

**Q.** And the “production of glucuronide (FIG. 5)” value [1]?
**A.** The value was “observed”.

**Q.** And the “production of glucuronide (FIG. 5)” value ([5]; UGT1A6 with At.UDPGDH, 7-hydroxycoumarine substrate, 30° C., 24 hrs)?
**A.** Its value is “observed”.

**Q.** And the productivity of glucuronide ([5]; optimal conditions, cells expressing UDPGDH and UGT1A6)?
**A.** Its productivity of glucuronide is 200 mg per liter of reaction solution.

**Q.** And the “production of glucuronide (FIG. 5)” value [6]?
**A.** The value was “observed”.

**Q.** With O=C(O)[C@H]1O[C@H](OP(=O)(O)OP(=O)(O)OC[C@H]2O[C@@H](n3ccc(=O)[nH]c3=O)[C@H](O)[C@@H]2O)[C@H](O)[C@@H](O)[C@@H]1O [UDP-glucuronic acid] as the compound, how does the “concentration of endogenous UDP-glucuronic acid in yeast cells” value [7] read?
**A.** Its value is 4 to 5 mM.

**Q.** With O=c1ccc2ccc(O)cc2o1 [7OHC, 7-hydroxycoumarine, reference compound] as the compound, how does the “conversion to glucuronide, time course (FIG. 6)” value ([5]; 0.5 mM 7OHC, after 24 hrs) read?
**A.** The value was “complete conversion”.

**Q.** And the “conversion to glucuronide, glucose dependence (FIG. 7)” value ([5]; at 8% (w/v) glucose)?
**A.** Its value is “complete conversion”.

**Q.** Which “acyl glucuronide formation (FIG. 11)” value ([4]; 1 mM mefenamic acid, UGT1A8) does the source give for Cc1cccc(Nc2ccccc2C(=O)O[C@@H]2O[C@H](C(=O)O)[C@@H](O)[C@H](O)[C@H]2O)c1C [mefenamic acid acyl glucuronide] here?
**A.** Its value is “significant activity”.

**Q.** What about the “acyl glucuronide formation (FIG. 11)” value [8] of the same compound?
**A.** The value was “significant activity”.
